Experimental data as given in patent publication US8999956B2, “N-[(het)arylalkyl)] pyrazole(thio)carboxamides and their heterosubstituted analogues” (Bayer Intellectual Property GmbH, priority 2010, dated 2015).
Read-outs that look alike come from different tables or passages of the source.

Assays:
Sphaerotheca fuliginea = assay: In vivo preventive test on Sphaerotheca fuliginea (cucumber); settings: 500 ppm of active ingredient, evaluated 7 days after inoculation
Method: Solvent: 49 parts by weight of N,N-dimethylformamide Emulsifier: 1 part by weight of Alkylarylpolyglycolether To produce a suitable preparation of active compound, 1 part by weight of active compound is mixed with the stated amounts of solvent and emulsifier, and the concentrate is diluted with water to the desired concentration. To test for preventive activity, young plants are sprayed with the preparation of active compound at the stated rate of application. One day after this treatment, the plants are inoculated with an aqueous spore suspension of Sphaerotheca fuliginea. Then the plants are placed in a greenhouse at approximately 23° C. and a relative atmospheric humidity of approximately 70%.

Alternaria solani = assay: In vivo preventive test on Alternaria solani (tomato); settings: 500 ppm of active ingredient, evaluated 7 days after inoculation
Procedure, shortened: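 Young tomato plants sprayed preventively with compound in DMF/alkylarylpolyglycolether emulsion diluted in water to the stated rate. Inoculation with aqueous Alternaria solani spore suspension one day after treatment.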

Pyrenophora teres = assay: In vivo preventive test on Pyrenophora teres (barley); settings: 500 ppm of active ingredient, evaluated 7-9 days after inoculation
Procedure, shortened: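 Compound formulated in N,N-dimethylformamide with alkylaryl polyglycol ether emulsifier and diluted in water, then sprayed on young barley plants at the stated application rate. Plants inoculated one day later with aqueous Pyrenophora teres spore suspension, testing preventive protection.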

Leptosphaeria nodorum = assay: In vivo preventive test on Leptosphaeria nodorum (wheat); settings: 500 ppm of active ingredient, evaluated 7-9 days after inoculation
Method: (§1) Solvent: 49 parts by weight of N,N-dimethylacetamide Emulsifier: 1 part by weight of alkylaryl polyglycol ether To produce a suitable preparation of active compound, 1 part by weight of active compound is mixed with the stated amounts of solvent and emulsifier, and the concentrate is diluted with water to the desired concentration. To test for preventive activity, young plants are sprayed with a preparation of active compound at the stated rate of application. One day after this treatment, the plants are inoculated with an aqueous spore suspension of Leptosphaeria nodorum.

Botrytis cinerea = assay: In vivo preventive test on Botrytis cinerea (beans)
Method: Solvent: 24.5 parts by weight of acetone • 24.5 parts by weight of N,N-dimethylacetamide
Emulsifier: 1 part by weight of alkylaryl polyglycol ether
To produce a suitable preparation of active compound, 1 part by weight of active compound is mixed with the stated amounts of solvent and emulsifier, and the concentrate is diluted with water to the desired concentration.
To test for preventive activity, young plants are sprayed with the preparation of active compound. After the spray coating has dried on, 2 small pieces of agar covered with growth of Botrytis cinerea are placed on each leaf. The inoculated plants are placed in a darkened chamber at 20° C. and a relative atmospheric humidity of 100%.
2 days after the inoculation, the size of the lesions on the leaves is evaluated. 0% means an efficacy which corresponds to that of the untreated control, while an efficacy of 100% means that no disease is observed.

[1] = log P by HPLC on reversed-phase column (EEC Directive 79/831 Annex V.A8); assay type: physicochemical
Method: In table 1, the log P values were determined in accordance with EEC Directive 79/831 Annex V.A8 by HPLC (High Performance Liquid Chromatography) on a reversed-phase column (C18), using the method described below: Temperature: 40° C.; […]

Venturia inaequalis = assay: In vivo preventive test on Venturia inaequalis (apple scab); settings: 100 ppm of active ingredient, evaluated 10 days after inoculation
Method: as §1, with “Solvent: 24.5 parts by weight of acetone • 24.5” for “Solvent: 49”, “with the” for “with a”, “application.” for “application. One day after this treatment, the plants are inoculated with an aqueous spore suspension of Leptosphaeria nodorum.”

Uromyces appendiculatus = assay: In vivo preventive test on Uromyces appendiculatus (beans); settings: 100 ppm of active ingredient, evaluated 10 days after inoculation
Method: as §1, with “Solvent: 24.5 parts by weight of acetone • 24.5” for “Solvent: 49”, “with the” for “with a”, “application.” for “application. One day after this treatment, the plants are inoculated with an aqueous spore suspension of Leptosphaeria nodorum.”

Puccinia triticina = assay: In vivo preventive test on Puccinia triticina (wheat)
[2] = system: aflatoxines produced by Aspergillus parasiticus; assay: microbe, parasite or virus in culture; assay type: cell-based
Aspergillus parasiticus = assay: microbe, parasite or virus in culture; assay type: cell-based
Septoria tritici = assay: In vivo preventive test on Septoria tritici (wheat); settings: 500 ppm of active ingredient, evaluated 21 days after inoculation
Method: Solvent: 49 parts by weight of N,N-dimethylacetamide Emulsifier: 1 part by weight of alkylaryl polyglycol ether To produce a suitable preparation of active compound, 1 part by weight of active compound or active compound combination is mixed with the stated amounts of solvent and emulsifier, and the concentrate is diluted with water to the desired concentration. To test for preventive activity, young plants are sprayed with the preparation of active compound or active compound combination at the stated rate of application. After the spray coating has been dried, the plants are sprayed with a spore suspension of Septoria tritici.

[3] = Table L, 500 ppm of active ingredient, lesion size 2 days after inoculation
[4] = Table K, 500 ppm of active ingredient, evaluated 8 days after inoculation
[5] = Table L2, dose 500 ppm, comparison with des-fluoro analogues
[6] = 500 ppm of active ingredient, evaluated 8 days after inoculation
[7] = Puccinia triticina, 192 h, Table K5, dose 500 ppm, comparison with des-fluoro analogues, read-out: Efficacy
[8] = Table L5, dose 500 ppm, comparison with des-fluoro analogues
[9] = 500 ppm of active ingredient, lesion size 2 days after inoculation

SMILES	Efficacy (Sphaerotheca fuliginea)	Efficacy (Alternaria solani)	Efficacy (Pyrenophora teres)	Efficacy (Botrytis cinerea; [3])	logP [1]	% Inhibition of Aflatoxin at 50 μM [2]	also measured
Cn1nc(C(F)F)c(C(=S)N(C[Si](C)(C)Cc2ccccc2)C2CC2)c1F [Example 289]	93%	95%	100%	100%	4.67		Efficacy (Leptosphaeria nodorum): 95%
Cn1nc(C(F)F)c(C(=O)NC2CCCC2CCC(C)(C)C)c1Cl (stereo not shown) [Example 320]	100%	100%	95%		4.49	99%	Efficacy (Venturia inaequalis): 100%; Efficacy (Uromyces appendiculatus): 99%; Efficacy (Puccinia triticina; [4]): 70%; % Inhibition of fungal growth at 50 μM (Aspergillus parasiticus): 82%
Cn1cc(C(=O)N(CC2CCCCC2c2ccccc2)C2CC2)c(C(F)F)n1 (stereo not shown) [compound CMP1, N-cyclopropyl-3-(difluoromethyl)-1-methyl-N-[(2-phenylcyclohexyl)methyl]-1H-pyrazole-4-carboxamide, reference compound]							Efficacy (Botrytis cinerea; [5]): 0%
Cn1nc(C(F)F)c(C(=O)N(C[Si](C)(C)Cc2cccc(Cl)c2)C2CC2)c1F [Example 291]	73%	100%	100%	100%	4.44	100%	Efficacy (Leptosphaeria nodorum): 100%; % Inhibition of fungal growth at 50 μM (Aspergillus parasiticus): 100%
CC(C)CC(C)C1CCCC1NC(=O)c1c(C(F)F)nn(C)c1Cl (single isomer, unassigned) [Example 313]		80%	100%		4.46 isomer B		Efficacy (Uromyces appendiculatus): 88%; % Inhibition of Aflatoxin at 50 μM ([2]; 50 µM): 99%; % Inhibition of fungal growth at 50 μM (Aspergillus parasiticus; 50 µM): 82%
CCC1(CNC(=O)c2c(C(F)F)nn(C)c2F)CCCCC1 [Example 366]		90%		84%	3.55		
CC(C)CCC1CCCC1NC(=O)c1c(C(F)F)nn(C)c1F (stereo not shown) [Example 310]	100%	100%	100%		3.98	100%	Efficacy (Venturia inaequalis): 100%; Efficacy (Uromyces appendiculatus): 100%; % Inhibition of fungal growth at 50 μM (Aspergillus parasiticus): 96%
Cc1nn(C)c(F)c1C(=O)N(CC1CCCCC1c1ccccc1)C1CC1 (stereo not shown) [compound CMP9, N-cyclopropyl-5-fluoro-1,3-dimethyl-N-[(2-phenylcyclohexyl)methyl]-1H-pyrazole-4-carboxamide, reference compound]							Efficacy (Botrytis cinerea; [5]): 13%
CCCCC1CCCC1NC(=O)c1c(C(F)F)nn(C)c1Cl (stereo not shown) [Example 307]	83%	100%	100%		3.83	100%	Efficacy (Venturia inaequalis): 100%; Efficacy (Uromyces appendiculatus): 100%; Efficacy (Puccinia triticina; [4]): 80%; % Inhibition of fungal growth at 50 μM (Aspergillus parasiticus): 92%
CC1CC(N(C(=O)c2c(C(F)F)nn(C)c2F)C2CC2)CC(C)(C)C1 (stereo not shown) [Example 322]	90%	90%	100%		4.31	100%	Efficacy (Leptosphaeria nodorum): 90%; Efficacy (Puccinia triticina; [4]): 95%; % Inhibition of fungal growth at 50 μM (Aspergillus parasiticus): 99%
Cn1nc(C(F)F)c(C(=O)N(C2CC2)C2CCCCC2C2CCCCC2)c1F (stereo not shown) [Example 372]	100%	95%	100%	91%	5.28		Efficacy (Leptosphaeria nodorum): 94%; Efficacy (Puccinia triticina; [4]): 100%
Cc1nn(C)c(F)c1C(=O)N(C1CC1)C1CCCC(c2ccccc2)C1 (stereo not shown) [compound CMP2, N-cyclopropyl-5-fluoro-1,3-dimethyl-N-(3-phenylcyclohexyl)-1H-pyrazole-4-carboxamide, reference compound]							Efficacy (Puccinia triticina; [6]): no protection; pest or weed control at 500 ppm (Puccinia triticina; [7]): 0%; Efficacy (Botrytis cinerea; [8]): 5%
CC(N(C(=O)c1c(C(F)F)nn(C)c1Cl)C1CC1)C(C)(C)Cc1ccccc1 (stereo not shown) [Example 10]		90%	95%	85%	4.27		
CCC(C)C(C)N(C(=O)c1c(C(F)F)nn(C)c1F)C1CC1 (mixture of isomers) [Example 302]	98%	95%	100%	93%		100%	% Inhibition of fungal growth at 50 μM (Aspergillus parasiticus): 100%
CC(CC1CCCCC1)N(C(=O)c1c(C(F)F)nn(C)c1F)C1CC1 (stereo not shown) [Example 370]	100%	100%	100%	100%	4.36		Efficacy (Leptosphaeria nodorum): 90%; Efficacy (Puccinia triticina; [4]): 90%
Cc1nn(C)c(F)c1C(=O)N(C1CC1)C1CCCCC1Oc1ccccc1 (stereo not shown) [compound CMP10, N-cyclopropyl-5-fluoro-1,3-dimethyl-N-(2-phenoxycyclohexyl)-1H-pyrazole-4-carboxamide, reference compound]							Efficacy (Botrytis cinerea; [9]): less than 30%; Efficacy (Botrytis cinerea; Table L4, dose 500 ppm, comparison with des-fluoro analogue): 29%
Cn1nc(C(F)F)c(C(=O)NC2(C3CCCCC3)CC2)c1F [Example 381]	95%	100%	100%	88%	3.11		
Cn1cc(C(=O)N(C2CC2)C2CCCC(c3ccccc3)C2)c(C(F)F)n1 (stereo not shown) [compound CMP3, N-cyclopropyl-3-(difluoromethyl)-1-methyl-N-(3-phenylcyclohexyl)-1H-pyrazole-4-carboxamide, reference compound]							Efficacy (Puccinia triticina; [6]): no protection; pest or weed control at 500 ppm (Puccinia triticina; [7]): 0%; Efficacy (Botrytis cinerea; [8]): 0%
Cn1nc(C(F)F)c(C(=O)N(C2CC2)C2CCCCC2C2=CCCCC2)c1F (stereo not shown) [Example 376]					4.88		Efficacy (Uromyces appendiculatus): 94%
Cn1cc(C(=O)N(C2CC2)C2CCCCC2Cc2ccccc2)c(C(F)F)n1 (stereo not shown) [16 from WO-2010/094666, N-(2-benzylcyclohexyl)-N-cyclopropyl-3-(difluoromethyl)-1-methyl-1H-pyrazole-4-carboxamide, reference compound]							Efficacy (Puccinia triticina; 100 ppm of active ingredient, evaluated 8 days after inoculation, listed as example 16 disclosed in patent application WO-2010/094666): no protection; pest or weed control at 100 ppm (Puccinia triticina; Puccinia triticina, 192 h, 100 ppm of active ingredient, evaluated 8 days after inoculation, read-out: Efficacy): 0%; pest or weed control at 500 ppm (Puccinia triticina; Puccinia triticina, 192 h, 500 ppm of active ingredient, evaluated 8 days after inoculation, read-out: Efficacy): < 60%; Efficacy (Botrytis cinerea; [9]): 29%; Efficacy (Botrytis cinerea; 500 ppm of active ingredient, lesion size 2 days after inoculation, listed as example 16 disclosed in patent application WO-2010/094666): less than 30%
CC(CC(C)(C)C)C1CCCCC1NC(=O)c1c(C(F)F)nn(C)c1F (single isomer, unassigned) [Example 361]	91%	95%	95%		4.89 isomer B	100%	Efficacy (Venturia inaequalis): 88%; Efficacy (Septoria tritici): 100%; Efficacy (Puccinia triticina; [4]): 90%; % Inhibition of fungal growth at 50 μM (Aspergillus parasiticus; 50 µM): 84%
